Measurements published in ChEMBL document CHEMBL5543117, “Novel TLR4-Activating Vaccine Adjuvant Enhances the Production of Enterococcus faecium-binding Antibodies” (J Med Chem, 2024).
Calls of active or inactive are those of the source. The calls are words filed in the database; no cut-off is given here.

Legend:
[1] = molecular target: Transcription factor p65 (Homo sapiens) (UniProt Q04206); assay: Induction of NFkappaB p65 nuclear translocation in human THP1-Xblue cells assessed as percentage of positive nuclei at 10 uM measured after 90 mins by Hoechst 33342 staining based immunofluorescence analysis relative to control (reference value: 0%); assay type: cell-based
THP1-Xblue [2] = assay: Immunostimulatory activity in human THP1-Xblue cells assessed as increase in IL-6 release at 0.1 to 10 uM incubated for 16 to 18 hrs by ELISA; assay type: functional, cell-based; settings: dose 0.1-10 µM, time 16-18 hrs
[3] = molecular target: Transcription factor p65 (Homo sapiens) (UniProt Q04206); assay: Induction of NFkappaB p65 nuclear translocation in human THP1-Xblue cells assessed as percentage of positive nuclei at 10 uM measured after 120 mins by Hoechst 33342 staining based immunofluorescence analysis (reference value: 0%); assay type: cell-based
Mus musculus [4] = assay: Adjuvant activity in OVA-immunized C57BL/6J mouse model assessed as increase in IgG2c levels at 10 ug, sc administered on day 0 and as booster dose on day 21 and measured after 42 days by ELISA; assay type: functional, organism-based; settings: dose 10.0 µg, time 42.0 day
Mus musculus [5] = assay: Adjuvant activity in OVA-immunized C57BL/6J mouse model assessed as increase in IgG1 levels at 10 ug, sc administered on day 0 and as booster dose on day 21 and measured after 42 days by ELISA; assay type: functional, organism-based; settings: dose 10.0 µg, time 42.0 day
Mus musculus [6] = assay: Adjuvant activity in OVA-immunized C57BL/6J mouse model assessed as increase in IgG levels at 10 ug, sc administered on day 0 and as booster dose on day 21 and measured after 42 days by ELISA; assay type: functional, organism-based; settings: dose 10.0 µg, time 42.0 day
Oryctolagus cuniculus [7] = assay: Adjuvant activity in Enterococcus faecium PpiC-immunized New Zealand rabbit model assessed as production of PpiC specific antibody in sera at 1:25600 dilutions at 70.2 ug administered on day 0, 14 ug on day 7 and 14 and measured after 28 days absorbance based analysis; assay type: functional, organism-based; settings: time 28.0 day
Mus musculus [8] = assay: Adjuvant activity in OVA-immunized C57BL/6J mouse model assessed as increase in IgG2b levels at 10 ug, sc administered on day 0 and as booster dose on day 21 and measured after 42 days by ELISA; assay type: functional, organism-based; settings: dose 10.0 µg, time 42.0 day
Oryctolagus cuniculus [9] = assay: Adjuvant activity in Enterococcus faecium PpiC-immunized New Zealand rabbit model assessed as production of PpiC specific antibody in sera at 1:50 dilutions at 70.2 ug administered on day 0, 14 ug on day 7 and 14 and measured after 28 days by absorbance based analysis; assay type: functional, organism-based; settings: time 28.0 day
Oryctolagus cuniculus [10] = assay: Adjuvant activity in Enterococcus faecium PpiC-immunized New Zealand rabbit model assessed as production of PpiC specific antibody in terminal bleed sera at 1:1600 dilutions at 70.2 ug administered on day 0, 14 ug on day 7 and 14 and measured after 28 days by ELISA; assay type: functional, organism-based; settings: time 28.0 day
Oryctolagus cuniculus [11] = assay: (§1) Adjuvant activity in Enterococcus faecium PpiC-immunized New Zealand rabbit model assessed as antibody production by measuring increase in vancomycin resistant Enterococcus faecium 11236/1 specific antibodies at 70.2 ug administered on day 0, 14 ug on day 7 and 14 and measured after 28 days by Whole-bacterial cell ELISA; assay type: functional, organism-based; settings: time 28.0 day
Oryctolagus cuniculus [12] = assay: Adjuvant activity in Enterococcus faecium PpiC-immunized New Zealand rabbit model assessed as production of PpiC specific antibody in sera at 70.2 ug administered on day 0, 14 ug on day 7 and 14 and measured after 28 days by ELISA; assay type: functional, organism-based; settings: time 28.0 day
Oryctolagus cuniculus [13] = assay: Adjuvant activity in Enterococcus faecium PpiC-immunized New Zealand rabbit model assessed as production of PpiC specific antibody in sera at 1:100 dilutions at 70.2 ug administered on day 0, 14 ug on day 7 and 14 and measured after 28 days by absorbance based analysis; assay type: functional, organism-based; settings: time 28.0 day
Oryctolagus cuniculus [14] = assay: as §1, with “at 38.2” for “at 70.2”, “0, 7.7” for “0, 14”; assay type: functional, organism-based; settings: time 28.0 day
Oryctolagus cuniculus [15] = assay: Adjuvant activity in Enterococcus faecium PpiC-immunized New Zealand rabbit model assessed as production of PpiC specific antibody in sera at 1:100 dilutions at 38.4 ug administered on day 0, 7.7 ug on day 7 and 14 and measured after 28 days by absorbance based analysis; assay type: functional, organism-based; settings: time 28.0 day
[16] = molecular target: Toll-like receptor 4 (Homo sapiens) (UniProt O00206); assay: Agonist activity at TLR4 in human THP1-Xblue cells assessed as increase in SEAP level at 0.1 to 10 uM incubated for 16 to 18 hrs by SEAP reporter gene based Quanti-Blue assay; assay type: cell-based; settings: filed as agonist, dose 0.1-10 µM, time 16-18 hrs
Mus musculus [17] = assay: Effect on IgG2b levels in OVA-immunized C57BL/6J mouse model at 10 ug, sc administered on day 0 and as booster dose on day 21 and measured after 42 days by ELISA; assay type: functional, organism-based; settings: dose 10.0 µg, time 42.0 day
[18] = molecular target: Toll-like receptor 4 (Homo sapiens) (UniProt O00206); assay: Agonist activity at TLR4 in human THP1-Xblue cells assessed as induction of p65 phosphorylation at 10 uM incubated for 120 to 240 mins by immunoblotting analysis; assay type: cell-based; settings: filed as agonist, time 120-240 min
Oryctolagus cuniculus [19] = assay: Adjuvant activity in Enterococcus faecium PpiC-immunized New Zealand rabbit model assessed as production of PpiC specific antibody in sera at 38.4 ug administered on day 0, 7.7 ug on day 7 and 14 and measured after 28 days by ELISA; assay type: functional, organism-based; settings: time 28.0 day
THP1-Xblue [20] = assay: Activation of TRAM/TRIF pathway in human THP1-Xblue cells assessed as induction of phosphorylated IRF3 nuclear translocation by immunofluorescence analysis; assay type: cell-based
Oryctolagus cuniculus [21] = assay: Adjuvant activity in Enterococcus faecium PpiC-immunized New Zealand rabbit model assessed as production of PpiC specific antibody in sera at 1:25600 dilutions at 38.4 ug administered on day 0, 7.7 ug on day 7 and 14 and measured after 28 days by absorbance based analysis; assay type: functional, organism-based; settings: time 28.0 day
[22] = molecular target: Toll-like receptor 4 (Homo sapiens) (UniProt O00206); assay: Agonist activity at TLR4 in human THP1-Xblue cells assessed as induction of IkappaBalpha degradation at 10 uM incubated for 15 mins by immunoblotting analysis; assay type: cell-based; settings: filed as agonist
THP1-Xblue [23] = assay: Immunostimulatory activity in human THP1-Xblue cells assessed as increase in IL-1beta release incubated for 16 to 18 hrs by ELISA; assay type: functional, cell-based; settings: dose 0.1-10 µM, time 16-18 hrs
[24] = Toxicity in OVA-immunized C57BL/6J mouse model assessed as change in ALT level at 10 ug, SC administered on day 0 and as booster dose on day 20 and measured after 40 days; settings: in vivo, 960 h, dose 10 µg, time 40 day
Oryctolagus cuniculus [25] = assay: Adjuvant activity in Enterococcus faecium PpiC-immunized New Zealand rabbit model assessed as production of PpiC specific antibody in terminal bleed sera at 1:1600 dilutions at 38.4 ug administered on day 0, 7.7 ug on day 7 and 14 and measured after 28 days by ELISA; assay type: functional, organism-based; settings: time 28.0 day
THP1-Xblue [26] = assay: Activation of TRAM/TRIF pathway in human THP1-Xblue cells assessed as increase in STAT1 phosphorylation by Western blot analysis; assay type: cell-based
THP1-Xblue [27] = assay: Immunostimulatory activity in human THP1-Xblue cells assessed as increase in TNF-alpha release incubated for 16 to 18 hrs by ELISA; assay type: functional, cell-based; settings: dose 0.1-10 µM, time 16-18 hrs
THP1-Xblue [28] = assay: Activation of TRAM/TRIF pathway in human THP1-Xblue cells assessed as increase in IRF3 phosphorylation by Western blot analysis; assay type: cell-based
[29] = Cytotoxicity against human THP1-Xblue cells assessed as reduction in cell viability at 0.1 to 10 uM incubated for 16 to 18 hrs by MTT assay; assay type: toxicity, cell-based; settings: dose lower 0.1 µM, time lower 16 hrs, dose upper 10 µM, time upper 18 hrs
THP1-Xblue [30] = assay: Induction of IFN-beta production in human THP1-Xblue cells; assay type: functional, cell-based
THP1-Xblue [31] = assay: Immunostimulatory activity in human THP1-Xblue cells assessed as increase in IL-6 release incubated for 16 to 18 hrs by ELISA; assay type: functional, cell-based; settings: dose 0.1-10 µM, time 16-18 hrs
[32] = Toxicity in OVA-immunized C57BL/6J mouse model assessed as change in body weight at 10 ug, SC administered on day 0 and measured after 4 days; settings: in vivo, 96 h, dose 10 µg, time 4 day
[33] = Toxicity in OVA-immunized C57BL/6J mouse model assessed as change in AST level at 10 ug, SC administered on day 0 and as booster dose on day 20 and measured after 40 days; settings: in vivo, 960 h, dose 10 µg, time 40 day
[34] = molecular target: Toll-like receptor 4 (Homo sapiens) (UniProt O00206); assay: Agonist activity at human TLR4 in HEK-Blue hTLR4 cells assessed as increase in SEAP level incubated for 16 to 18 hrs by SEAP reporter gene based Quanti-Blue assay; assay type: cell-based; settings: filed as agonist, dose 0.1-25 µM, time 16-18 hrs
Oryctolagus cuniculus [35] = assay: Adjuvant activity in Enterococcus faecium PpiC-immunized New Zealand rabbit model assessed as production of PpiC specific antibody in sera at 1:50 dilutions at 38.4 ug administered on day 0, 7.7 ug on day 7 and 14 and measured after 28 days by absorbance based analysis; assay type: functional, organism-based; settings: time 28.0 day
Oryctolagus cuniculus [36] = assay: Induction of antibody production in New Zealand rabbit at 38.4 ug administered on day 0, 7.7 ug on day 7 and 14 and measured after 28 days by ELISA; assay type: functional, organism-based; settings: time 28.0 day
[37] = molecular target: Toll-like receptor 2 (Homo sapiens) (UniProt O60603); assay: Agonist activity at human TLR2 in HEK-Blue hTLR2 cells assessed as increase in SEAP level at 0.1 to 25 uM incubated for 16 to 18 hrs by SEAP reporter gene based Quanti-Blue assay; assay type: cell-based; settings: dose 0.1-25 µM, time 16-18 hrs
Sequence of Toll-like receptor 2 (Homo sapiens) (O60603 whole entry): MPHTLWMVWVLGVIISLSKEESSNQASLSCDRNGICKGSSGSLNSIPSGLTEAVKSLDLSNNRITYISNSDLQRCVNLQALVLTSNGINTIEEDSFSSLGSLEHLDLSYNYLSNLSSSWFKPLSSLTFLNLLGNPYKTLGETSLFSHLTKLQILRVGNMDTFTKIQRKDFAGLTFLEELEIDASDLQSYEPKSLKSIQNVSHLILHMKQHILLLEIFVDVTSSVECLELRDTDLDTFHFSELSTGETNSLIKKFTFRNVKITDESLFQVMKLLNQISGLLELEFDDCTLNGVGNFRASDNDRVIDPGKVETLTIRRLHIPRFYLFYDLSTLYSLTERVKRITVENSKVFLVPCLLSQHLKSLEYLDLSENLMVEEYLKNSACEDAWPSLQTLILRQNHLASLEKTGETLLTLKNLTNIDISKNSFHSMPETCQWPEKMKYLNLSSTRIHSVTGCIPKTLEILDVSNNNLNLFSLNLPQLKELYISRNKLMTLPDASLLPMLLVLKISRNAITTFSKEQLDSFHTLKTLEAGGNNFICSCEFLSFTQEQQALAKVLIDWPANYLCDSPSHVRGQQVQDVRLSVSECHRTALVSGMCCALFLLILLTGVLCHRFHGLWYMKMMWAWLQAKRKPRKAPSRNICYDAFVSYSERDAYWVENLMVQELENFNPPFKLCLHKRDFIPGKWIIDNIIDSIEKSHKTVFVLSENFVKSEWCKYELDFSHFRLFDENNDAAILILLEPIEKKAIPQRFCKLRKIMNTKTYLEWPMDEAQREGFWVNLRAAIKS

Sequence of Toll-like receptor 4 (Homo sapiens) (O00206 whole entry): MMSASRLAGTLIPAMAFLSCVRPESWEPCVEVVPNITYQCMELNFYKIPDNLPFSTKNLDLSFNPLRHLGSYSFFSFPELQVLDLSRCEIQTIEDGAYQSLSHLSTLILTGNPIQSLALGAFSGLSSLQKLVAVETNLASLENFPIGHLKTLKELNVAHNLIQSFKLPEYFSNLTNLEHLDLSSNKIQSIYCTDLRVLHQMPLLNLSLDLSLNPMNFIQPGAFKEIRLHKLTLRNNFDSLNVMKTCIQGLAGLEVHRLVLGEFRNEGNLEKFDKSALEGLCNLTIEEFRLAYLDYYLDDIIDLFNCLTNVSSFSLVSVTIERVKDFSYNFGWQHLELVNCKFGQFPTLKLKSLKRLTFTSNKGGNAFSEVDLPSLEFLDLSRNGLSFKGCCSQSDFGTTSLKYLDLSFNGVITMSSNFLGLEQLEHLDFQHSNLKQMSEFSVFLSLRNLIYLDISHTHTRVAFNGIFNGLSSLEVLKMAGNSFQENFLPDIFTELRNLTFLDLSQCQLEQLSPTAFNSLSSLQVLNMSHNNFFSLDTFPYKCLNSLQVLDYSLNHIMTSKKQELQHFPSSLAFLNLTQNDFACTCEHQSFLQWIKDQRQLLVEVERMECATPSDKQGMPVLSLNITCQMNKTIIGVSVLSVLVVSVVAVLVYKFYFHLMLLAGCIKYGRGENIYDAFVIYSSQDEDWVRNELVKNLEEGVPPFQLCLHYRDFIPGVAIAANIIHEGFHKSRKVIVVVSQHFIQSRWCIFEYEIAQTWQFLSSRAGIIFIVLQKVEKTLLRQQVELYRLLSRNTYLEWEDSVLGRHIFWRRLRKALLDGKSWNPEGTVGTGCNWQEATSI
Sequence of Transcription factor p65 (Homo sapiens) (Q04206 whole entry): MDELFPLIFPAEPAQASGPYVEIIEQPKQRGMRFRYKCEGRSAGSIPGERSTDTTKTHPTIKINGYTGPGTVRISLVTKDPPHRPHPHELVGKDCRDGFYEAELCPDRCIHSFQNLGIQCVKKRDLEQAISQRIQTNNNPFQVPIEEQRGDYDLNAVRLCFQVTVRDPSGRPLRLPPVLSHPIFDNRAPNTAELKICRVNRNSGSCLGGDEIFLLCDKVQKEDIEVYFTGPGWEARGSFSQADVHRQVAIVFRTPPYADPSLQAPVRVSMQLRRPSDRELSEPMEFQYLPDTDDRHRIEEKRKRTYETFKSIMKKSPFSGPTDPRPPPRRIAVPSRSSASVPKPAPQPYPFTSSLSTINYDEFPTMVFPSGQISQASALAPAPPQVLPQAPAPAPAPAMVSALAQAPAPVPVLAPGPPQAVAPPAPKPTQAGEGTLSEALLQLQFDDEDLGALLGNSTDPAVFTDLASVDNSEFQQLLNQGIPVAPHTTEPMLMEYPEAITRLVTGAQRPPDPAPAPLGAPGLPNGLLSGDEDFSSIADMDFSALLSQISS

CCCCCCCCCCCC(=O)N[C@H]1[C@H](OC(=O)CCCCCCCCCCC)O[C@H](CO)[C@@H](OP(=O)(O)O)[C@@H]1OC(=O)CCCCCCCCCCC
Activity [1]: 1.3% | Activity (THP1-Xblue [2]): inactive | Activity [3]: 1.8%

CCCCCCCCCCCCCC(=O)O[C@H](CCCCCCCCCCC)CC(=O)N[C@H]1[C@H](OC[C@H]2OC(O)[C@H](NC(=O)C[C@H](O)CCCCCCCCCCC)[C@@H](OC(=O)C[C@H](O)CCCCCCCCCCC)[C@@H]2O)O[C@H](CO)[C@@H](OP(=O)(O)O)[C@@H]1OC(=O)C[C@@H](CCCCCCCCCCC)OC(=O)CCCCCCCCCCCCC (some centres not stated)
Activity (Mus musculus [4]): Active | Activity (Mus musculus [5]): Active | Activity (Mus musculus [6]): Active | Activity (Oryctolagus cuniculus [7]): Active | Activity (Mus musculus [8]): Active | Activity (Oryctolagus cuniculus [9]): Active | Activity (Oryctolagus cuniculus [10]): Active | Activity (Oryctolagus cuniculus [11]): Active | Activity (Oryctolagus cuniculus [12]): Active | Activity (Oryctolagus cuniculus [13]): Active

CCCCCCCCCCCC(=O)N[C@H]1[C@H](OC(=O)CCCCCCCCCCC)O[C@H](COC(=O)C(C)(CO)CO)[C@@H](OP(=O)([O-])[O-])[C@@H]1OC(=O)CCCCCCCCCCC.[Na+].[Na+]
Activity (Oryctolagus cuniculus [14]): Active | Activity (Mus musculus [4]): Active | Activity (Mus musculus [5]): Active | Activity (Oryctolagus cuniculus [15]): Active | Activity (Mus musculus [6]): Active | Activity [16]: Active | Activity (Mus musculus [17]): inactive | Activity [18]: Active | Activity (Oryctolagus cuniculus [19]): Active | Activity (THP1-Xblue [20]): inactive | Activity (Oryctolagus cuniculus [21]): Active | Activity [22]: Active | Activity (THP1-Xblue [23]): Dose-Dependent Effect | Activity [24]: Non-Toxic | Activity (Oryctolagus cuniculus [25]): Active | Activity (THP1-Xblue [26]): inactive | Activity (THP1-Xblue [27]): Dose-Dependent Effect | Activity (THP1-Xblue [28]): inactive | Activity [1]: 15.3% | Activity [29]: Non-Toxic | Activity (THP1-Xblue [30]): inactive | Activity [3]: 19% | Activity (THP1-Xblue [31]): Dose-Dependent Effect | Activity [32]: Non-Toxic | Activity [33]: Non-Toxic | Activity [34]: Active | Activity (Oryctolagus cuniculus [35]): Active | Activity (Oryctolagus cuniculus [36]): inactive | Activity [37]: inactive
